13 compounds from patent publication US9975888B2, “Aryl linked imidazole and triazole derivatives and methods of use thereof for improving the pharmacokinetics of a drug” (MERCK SHARP & DOHME CORP., priority 2013, dated 2018) can be followed below.

Holding throughout (type): biochemical
One experiment has as its target T1, CYP1A2 (Homo sapiens, UniProt P05177).
T1 construct: 0.1 mg/mL protein human liver microsomes (BD Gentest); tissue BD Gentest; host or cells: human liver microsomes
T1 sequence (P05177 1-516): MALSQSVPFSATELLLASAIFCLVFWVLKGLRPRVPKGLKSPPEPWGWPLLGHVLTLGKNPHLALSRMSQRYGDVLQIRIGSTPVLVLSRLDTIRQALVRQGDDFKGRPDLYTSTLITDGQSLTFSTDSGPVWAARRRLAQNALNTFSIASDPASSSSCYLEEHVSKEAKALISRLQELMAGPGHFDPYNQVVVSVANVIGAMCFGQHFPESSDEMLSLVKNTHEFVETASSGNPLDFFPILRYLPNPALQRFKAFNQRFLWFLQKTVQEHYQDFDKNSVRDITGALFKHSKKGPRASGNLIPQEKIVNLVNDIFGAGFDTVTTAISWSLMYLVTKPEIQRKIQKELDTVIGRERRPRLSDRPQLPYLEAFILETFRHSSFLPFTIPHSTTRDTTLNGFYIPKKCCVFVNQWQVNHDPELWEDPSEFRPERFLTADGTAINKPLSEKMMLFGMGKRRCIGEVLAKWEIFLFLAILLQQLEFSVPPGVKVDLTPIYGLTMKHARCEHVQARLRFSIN
Briefly: Cocktail assay for CYPs, phenacetin O-deethylation (CYP1A2), human liver microsomes. To be noted: 10 μM phenacetin, 0.1 mg/mL human liver microsomes, 10 min at 37° C.; read-out: CYP IC50 (nM) 1A2. In outline:
(§1)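 Pooled human liver microsomes (0.1 mg/mL) with a probe cocktail of 10 μM phenacetin, 5 μM dextromethorphan and 2 μM midazolam plus NADPH, pH 7.4, 10 min at 37° C. Each metabolite was quantified by LC/MS/MS against a tolbutamide internal standard. IC50 came from % inhibition at 6 concentrations (e.g. 0.0032–10 μM) by non-linear regression.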
For orientation: Microsomes from liver hold many membrane-bound enzymes, among them those of drug oxidation.

Experiment [1] has as its target T2, CYP3A4 (Homo sapiens, UniProt P08684). Briefly: Cocktail assay for CYPs, midazolam 1′-hydroxylation (CYP3A4), human liver microsomes. To be noted: 2 μM midazolam, 0.1 mg/mL human liver microsomes, 10 min at 37° C.; read-out: CYP IC50 (nM) 3A4 (MDZ). Further details: 0.1 mg/mL protein human liver microsomes (BD Gentest); tissue BD Gentest; host or cells: human liver microsomes. A digest of the protocol: as §1
Target sequence in this assay (P08684 whole entry): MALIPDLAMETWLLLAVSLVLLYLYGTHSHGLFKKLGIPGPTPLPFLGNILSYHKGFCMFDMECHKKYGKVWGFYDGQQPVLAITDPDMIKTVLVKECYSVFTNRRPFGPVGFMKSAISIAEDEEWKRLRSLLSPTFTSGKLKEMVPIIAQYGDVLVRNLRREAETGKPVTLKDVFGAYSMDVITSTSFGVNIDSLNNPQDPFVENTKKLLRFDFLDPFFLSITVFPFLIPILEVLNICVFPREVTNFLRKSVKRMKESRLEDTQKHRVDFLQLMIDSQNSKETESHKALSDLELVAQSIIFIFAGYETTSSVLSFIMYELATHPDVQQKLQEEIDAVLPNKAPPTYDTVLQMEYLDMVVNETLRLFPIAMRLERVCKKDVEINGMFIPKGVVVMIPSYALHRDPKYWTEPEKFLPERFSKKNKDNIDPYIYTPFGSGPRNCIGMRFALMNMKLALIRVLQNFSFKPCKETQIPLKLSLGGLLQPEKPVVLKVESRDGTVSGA

The target in another experiment is T3, CYP2C9 (Homo sapiens, UniProt P11712).
T3 construct: 0.1 mg/mL protein human liver microsomes (BD Gentest); tissue BD Gentest; host or cells: human liver microsomes
In words: Cocktail assay for CYPs, diclofenac 4′-hydroxylation (CYP2C9), human liver microsomes. To be noted: 5 μM diclofenac, 0.1 mg/mL human liver microsomes, 10 min at 37° C.; read-out: CYP IC50 (nM) 2C9. In outline: (§2)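 Pooled human liver microsomes (0.1 mg/mL) with probe cocktail incl. 5 μM diclofenac (CYP2C9) and 30 μM mephenytoin (CYP2C19), 1 mM NADPH, pH 7.4 phosphate buffer, 10 min at 37° C. Metabolites quantified by LC/MS/MS against internal standard; % inhibition versus no-inhibitor control, IC50 by non-linear regression.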

A further experiment has as its target T4, CYP2C19 (Homo sapiens, UniProt P33261).
T4 construct: 0.1 mg/mL protein human liver microsomes (BD Gentest); tissue BD Gentest; host or cells: human liver microsomes
Briefly: Cocktail assay for CYPs, mephenytoin 4′-hydroxylation (CYP2C19), human liver microsomes. To be noted: 30 μM mephenytoin, 0.1 mg/mL human liver microsomes, 10 min at 37° C.; read-out: CYP IC50 (nM) 2C19. In outline:
as §2

Experiment [2] concerns the target T2, CYP3A4. In words: IC50 vs CYP3A by inhibition of lopinavir metabolism in human liver microsomes. Further details: 0.01 mg/mL protein human liver microsomes (BD Gentest); tissue BD Gentest; host or cells: human liver microsomes. To be noted: 1.5 μM lopinavir, 0.01 mg/mL human liver microsomes, 8 min at 37° C.; read-out: CYP IC50 (nM) 3A4 (LPV). A digest of the protocol: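 Human liver microsomes (0.01 mg/mL) with 1.5 μM lopinavir, 1 mM NADPH, 3.3 mM MgCl2 in 100 mM potassium phosphate pH 7.4, 8 min at 37 °C, six compound concentrations. Summed M2/M3/M4 hydroxy metabolites quantified by LC/MS/MS against tolbutamide; % inhibition normalised between no-inhibitor and 5 μM ketoconazole controls, IC50 by non-linear regression.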
Target sequence in this assay (P08684 2-503): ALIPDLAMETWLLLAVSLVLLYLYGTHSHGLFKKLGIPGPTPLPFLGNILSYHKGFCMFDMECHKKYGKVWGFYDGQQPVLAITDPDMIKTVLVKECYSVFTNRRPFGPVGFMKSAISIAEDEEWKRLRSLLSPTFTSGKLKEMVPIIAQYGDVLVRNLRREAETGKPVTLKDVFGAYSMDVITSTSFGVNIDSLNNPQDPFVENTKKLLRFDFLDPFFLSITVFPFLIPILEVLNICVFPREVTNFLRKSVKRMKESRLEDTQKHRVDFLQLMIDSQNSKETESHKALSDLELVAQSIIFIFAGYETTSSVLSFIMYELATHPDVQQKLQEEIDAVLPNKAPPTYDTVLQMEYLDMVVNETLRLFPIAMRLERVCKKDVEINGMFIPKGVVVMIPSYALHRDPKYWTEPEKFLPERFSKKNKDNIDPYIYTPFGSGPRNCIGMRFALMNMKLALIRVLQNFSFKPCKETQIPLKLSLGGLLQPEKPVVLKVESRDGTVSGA

The next experiment has as its target T5, CYP2D6 (Homo sapiens, UniProt P10635).
T5 construct: 0.1 mg/mL protein human liver microsomes (BD Gentest); tissue BD Gentest; host or cells: human liver microsomes
Briefly: Cocktail assay for CYPs, dextromethorphan O-demethylation (CYP2D6), human liver microsomes. To be noted: 5 μM dextromethorphan, 0.1 mg/mL human liver microsomes, 10 min at 37° C.; read-out: CYP IC50 (nM) 2D6. In outline: as §1

Each structure is given as a SMILES string.

T4 sequence (P33261 whole entry): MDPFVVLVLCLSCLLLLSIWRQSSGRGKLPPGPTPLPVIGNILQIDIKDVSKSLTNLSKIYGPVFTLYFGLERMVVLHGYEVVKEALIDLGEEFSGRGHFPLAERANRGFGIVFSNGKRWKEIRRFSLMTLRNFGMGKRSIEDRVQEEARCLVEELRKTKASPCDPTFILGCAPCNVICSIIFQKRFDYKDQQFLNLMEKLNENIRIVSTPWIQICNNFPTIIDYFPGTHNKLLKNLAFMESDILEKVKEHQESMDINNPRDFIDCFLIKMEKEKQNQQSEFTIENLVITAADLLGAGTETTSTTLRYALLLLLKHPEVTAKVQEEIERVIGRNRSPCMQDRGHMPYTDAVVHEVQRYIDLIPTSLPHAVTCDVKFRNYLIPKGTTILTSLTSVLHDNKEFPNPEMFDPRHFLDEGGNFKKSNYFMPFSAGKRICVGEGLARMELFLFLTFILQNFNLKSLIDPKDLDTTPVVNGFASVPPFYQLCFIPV
T5 sequence (P10635 whole entry): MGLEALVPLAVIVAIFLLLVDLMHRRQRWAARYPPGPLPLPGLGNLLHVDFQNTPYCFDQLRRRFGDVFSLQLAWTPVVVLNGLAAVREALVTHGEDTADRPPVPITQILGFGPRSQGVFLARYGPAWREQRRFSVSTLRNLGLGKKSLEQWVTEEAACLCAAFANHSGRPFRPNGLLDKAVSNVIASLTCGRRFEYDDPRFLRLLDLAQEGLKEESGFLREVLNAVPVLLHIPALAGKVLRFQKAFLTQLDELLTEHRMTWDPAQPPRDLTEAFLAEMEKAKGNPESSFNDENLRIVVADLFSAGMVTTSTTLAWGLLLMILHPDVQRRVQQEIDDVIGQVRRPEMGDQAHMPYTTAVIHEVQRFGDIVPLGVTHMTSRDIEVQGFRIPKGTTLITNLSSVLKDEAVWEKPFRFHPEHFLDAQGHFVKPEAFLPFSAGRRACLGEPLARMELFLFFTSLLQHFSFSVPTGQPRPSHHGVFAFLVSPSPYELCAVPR
T3 sequence (P11712 whole entry): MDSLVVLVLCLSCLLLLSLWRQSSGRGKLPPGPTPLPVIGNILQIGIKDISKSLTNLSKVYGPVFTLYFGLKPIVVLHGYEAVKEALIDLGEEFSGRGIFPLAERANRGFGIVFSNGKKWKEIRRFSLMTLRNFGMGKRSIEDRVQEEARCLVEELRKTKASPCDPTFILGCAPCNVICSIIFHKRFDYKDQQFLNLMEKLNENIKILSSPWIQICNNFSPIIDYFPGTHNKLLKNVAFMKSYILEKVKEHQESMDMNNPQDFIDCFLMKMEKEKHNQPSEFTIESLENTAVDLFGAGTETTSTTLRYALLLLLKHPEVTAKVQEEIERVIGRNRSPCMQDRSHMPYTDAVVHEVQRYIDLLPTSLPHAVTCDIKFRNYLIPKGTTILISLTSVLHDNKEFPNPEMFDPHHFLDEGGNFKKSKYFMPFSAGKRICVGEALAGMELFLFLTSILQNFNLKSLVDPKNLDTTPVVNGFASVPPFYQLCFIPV

One may read the IC50 as the concentration that gives 50% inhibition. For `C[C@H](c1ccc(F)cc1)n1cncc1-c1cccc2c1CCN(S(=O)(=O)c1cnc(N3CCN4C[C@H](O)C[C@H]4C3)s1)C2` [Compound 63, (7R,8aS)-2-(5-((5-(1-((R)-1-(4-fluorophenyl)ethyl)-1H-imidazol-5-yl)-3,4-dihydroisoquinolin-2(1H)-yl)sulfonyl)thiazol-2-yl)octahydropyrrolo[1,2-a]pyrazin-7-ol], the IC50 at CYP1A2 came to 2500 nM; on CYP3A4 [1], 7.5 nM; on CYP2C9, 4950 nM; at CYP2C19 it was 2610 nM; at CYP3A4 [2] it was 5 nM; on CYP2D6, 3680 nM.

For `CC(C)NC(=O)N1CCCC1c1ccccc1-c1cncn1CCc1ccc(F)cc1` (single isomer, unassigned) [Compound 46b, (R or S)-2-(2-(1-(4-fluorophenethyl)-1H-imidazol-5-yl)phenyl)-N-isopropyl-pyrrolidine-1-carboxamide], the IC50 was > 10000 nM on CYP1A2; 6.1 nM at CYP3A4 [1]; > 10000 nM on CYP2C9; > 10000 nM at CYP2C19; 6.2 nM at CYP3A4 [2]; > 10000 nM at CYP2D6.

Turning to `O=S(=O)(c1ccc(N2CCN(CCO)CC2)nc1)N1CCCC1c1ccccc1-c1cncn1CCc1ccc(F)cc1` (single isomer, unassigned) [Compound 35b, (R or S)-2-(4-(5-((2-(2-(1-(4-fluorophenethyl)-1H-imidazol-5-yl)phenyl)pyrrolidin-1-yl)sulfonyl)pyridin-2-yl)piperazin-1-yl)ethanol], the IC50 is > 10000 nM at CYP1A2; 4 nM at CYP3A4 [1]; 6930 nM on CYP2C9; 9720 nM at CYP2C19; 0.9 nM at CYP3A4 [2]; 3060 nM on CYP2D6.

As to `CC(=O)Nc1ncc(S(=O)(=O)N2CCc3cc(-c4cncn4CCc4ccc(F)cc4)ccc3C2)s1` [Compound 1, N-(5-((6-(1-(4-fluorophenethyl)-1H-imidazol-5-yl)-3,4-dihydroisoquinolin-2(1H)-yl)sulfonyl)thiazol-2-yl)acetamide], the IC50 on CYP1A2 worked out at 1450 nM; at CYP3A4 [1], 11 nM; on CYP2C9 it was 10 nM; at CYP2C19 it was 44 nM; on CYP3A4 [2], 2.3 nM; at CYP2D6 it was 765 nM.

On to `CC(C)OC(=O)N1CCCC1c1ccccc1-c1cncn1CCc1ccc(F)cc1` (single isomer, unassigned) [Compound 39a, (R or S)-isopropyl 2-(2-(1-(4-fluorophenethyl)-1H-imidazol-5-yl)phenyl) pyrrolidine-1-carboxylate], for which the IC50 on CYP1A2 was 3840 nM; at CYP3A4 [1], 7.6 nM; at CYP2C9 it was 2200 nM; on CYP2C19 it was 2730 nM; on CYP3A4 [2], 4.3 nM; on CYP2D6, 9040 nM.

Take `CC(=O)Nc1ncc(S(=O)(=O)NC(C)(C)c2ccccc2-c2cncn2CCc2ccc(F)cc2)s1` [Compound 7, N-(5-(N-(2-(2-(1-(4-fluorophenethyl)-1H-imidazol-5-yl)phenyl)propan-2-yl)sulfamoyl)thia-zol-2-yl)acetamide]: the IC50 on CYP1A2 was 6070 nM; at CYP3A4 [1], 22.9 nM; at CYP2C9, 5990 nM; at CYP2C19, 3180 nM; at CYP3A4 [2], 10.6 nM; at CYP2D6, 2880 nM.

`CN1CCN(c2ncc(S(=O)(=O)NC(c3ccccc3)c3ccccc3-c3cncn3CCc3ccc(F)cc3)s2)CC1` (stereo not drawn) [Compound 5, N-((2-(1-(4-fluorophenethyl)-1H-imidazol-5-yl)phenyl) (phenyl)methyl)-2-(4-methylpiperazin-1-yl)thiazole-5-sulfonamide]: the IC50 is > 10000 nM on CYP1A2; 65 nM on CYP3A4 [1]; > 10000 nM on CYP2C9; > 10000 nM at CYP2C19; 80 nM at CYP3A4 [2]; > 10000 nM on CYP2D6.

For the compound `CC(C)(C)OC(=O)N1CCCC1c1ccccc1-c1cncn1C1CC1` (stereo not drawn) [Compound 37, tert-butyl 2-(2-(1-cyclopropyl-1H-imidazol-5-yl)phenyl) pyrrolidine-1-carboxylate], the IC50 is > 10000 nM on CYP1A2; 17.8 nM on CYP3A4 [1]; > 10000 nM at CYP2C9; 5810 nM on CYP2C19; 35.2 nM on CYP3A4 [2]; > 10000 nM on CYP2D6.

For `CC(=O)Nc1ncc(S(=O)(=O)N2CCCC2c2ccccc2-c2cncn2CCc2ccc(F)cc2)s1` (stereo not drawn) [Compound 21, N-(5-((2-(2-(1-(4-fluorophenethyl)-1H-imidazol-5-yl)phenyl)pyrrolidin-1-yl)sulfonyl)thiazol-2-yl) acetamide], the half-inhibitory concentration (IC50) on CYP1A2 came out at 5890 nM; on CYP3A4 [1], 13.7 nM; at CYP2C9 it was 4410 nM; on CYP2C19, 4190 nM; on CYP3A4 [2], 5.6 nM; at CYP2D6, 4050 nM.

On to `O=S(=O)(c1ccc(N2CCN(CCO)CC2)nc1)N1CCCC1c1ccccc1-c1cncn1CCc1ccc(F)cc1` (single isomer, unassigned) [Compound 35a, (R or S)-2-(4-(5-((2-(2-(1-(4-fluorophenethyl)-1H-imidazol-5-yl)phenyl)pyrrolidin-1-yl)sulfonyl)pyridin-2-yl)piperazin-1-yl) ethanol], for which the IC50 at CYP1A2 was > 10000 nM; on CYP3A4 [1], 8.1 nM; on CYP2C9, 8600 nM; at CYP2C19 it was > 10000 nM; on CYP3A4 [2], 4.2 nM; on CYP2D6 it was 4600 nM.

Regarding `O=C(C1CC1)N1CCCC1c1ccccc1-c1cncn1CCc1ccc(F)cc1` (single isomer, unassigned) [Compound 44b, (R or S)-cyclopropyl(2-(2-(1-(4-fluorophenethyl)-1H-imidazol-5-yl)phenyl)pyrrolidin-1-yl)methanone], the IC50 at CYP1A2 was > 10000 nM; at CYP3A4 [1], 6.7 nM; at CYP2C9, 5900 nM; on CYP2C19 it was 7130 nM; on CYP3A4 [2], 6.4 nM; at CYP2D6 it was > 10000 nM.

With `O=S(=O)(c1ccc(N2CCC(O)CC2)nc1)N1CCCC1c1ccccc1-c1cncn1CCc1ccc(F)cc1` (single isomer, unassigned) [Compound 32, (R or S)-1-(5-((2-(2-(1-(4-fluorophenethyl)-1H-imidazol-5-yl)phenyl)pyrrolidin-1-yl)sulfonyl)pyridin-2-yl) piperidin-4-ol], the IC50 is > 10000 nM on CYP1A2; 4.2 nM at CYP3A4 [1]; 3720 nM at CYP2C9; 3410 nM at CYP2C19; 0.7 nM at CYP3A4 [2]; 5820 nM at CYP2D6.

For the compound `CC(C)NC(=O)N1CCCC1c1cccc(-c2cncn2CCc2ccc(F)cc2)c1` (stereo not drawn) [Compound 50, 2-(3-(1-(4-fluorophenethyl)-1H-imidazol-5-yl)phenyl)-N-isopropyl-pyrrolidine-1-carboxamide], the IC50 on CYP1A2 was 5750 nM; at CYP3A4 [1], 9.4 nM; at CYP2C9, 4180 nM; on CYP2C19, 2070 nM; at CYP3A4 [2] it was 14.2 nM; on CYP2D6 it was ≥ 10000 nM.
